Assay results: PubChem BioAssay AID256 (DTP/NCI, 2004)
Toxic doses and inconclusive results are not listed.

Test system: CD2F1 mice, L1210 leukemia ip, survival T/C
Test: NCI In Vivo Anticancer Drug Screen. Data for tumor model L1210 Leukemia (intraperitoneal) in CD2F1 (CDF1) mice
Conditions: higher = longer survival
How it was run: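 Activity against a transplanted murine tumor was judged by comparing the compound group with a vehicle group. The outcome in the treated animals was divided by that in the controls.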

[1] = endpoint: mean survival time, dose: 100.0 mg/kg/injection, schedule: Q04DX003 (ip), vehicle: saline with Tween-80
[2] = endpoint: mean survival time, dose: 200.0 mg/kg/injection, schedule: Q04DX003 (ip), vehicle: saline with Tween-80
[3] = endpoint: mean survival time, dose: 400.0 mg/kg/injection, schedule: Q04DX003 (ip), vehicle: saline with Tween-80
[4] = endpoint: mean survival time, dose: 100.0 mg/kg/injection, schedule: Q01DX009 (ip), vehicle: saline with Tween-80
[5] = endpoint: mean survival time, dose: 200.0 mg/kg/injection, schedule: Q01DX009 (ip), vehicle: saline with Tween-80

Cc1cc2nc(NN)[nH]c2cc1C
T/C [1]: 98 % of control | T/C [2]: 98 % of control | T/C [3]: 114 % of control

CN(C)/N=N/c1[nH]ncc1C(N)=O
T/C (endpoint: mean survival time, dose: 150.0 mg/kg/injection, schedule: Q01DX001 (oral), vehicle: saline): 121 % of control | T/C (endpoint: mean survival time, dose: 1200.0 mg/kg/injection, schedule: Q01DX001 (oral), vehicle: saline): 158 % of control

Cc1ccc(NC(=O)OCCOc2ccccc2Cl)cc1C
T/C (endpoint: mean survival time, dose: 50.0 mg/kg/injection, schedule: Q01DX009 (ip), vehicle: saline with Tween-80): 96 % of control | T/C [4]: 93 % of control | T/C [5]: 93 % of control

C=CCOC(=O)Oc1ccccc1Cl
T/C [4]: 102 % of control | T/C [1]: 98 % of control | T/C [2]: 95 % of control

C(=NCc1ccccc1)c1ccccc1-c1ccccc1C=NCc1ccccc1
T/C [1]: 97 % of control | T/C [2]: 107 % of control | T/C [3]: 106 % of control

Nc1nc2c(ncn2CCCc2ccccc2)c(=O)[nH]1
T/C (endpoint: mean survival time, dose: 100.0 mg/kg/injection, schedule: Q01DX001 (ip), vehicle: saline with Tween-80): 94 % of control | T/C (endpoint: mean survival time, dose: 200.0 mg/kg/injection, schedule: Q01DX001 (ip), vehicle: saline with Tween-80): 94 % of control

CC(O)C(NC(=O)c1cnc(OCc2ccccc2)nc1N)C(=O)O (configuration not stated)
T/C (endpoint: mean survival time, dose: 6.25 mg/kg/injection, schedule: Q01DX009 (ip), vehicle: saline with Tween-80): 104 % of control | T/C (endpoint: mean survival time, dose: 12.5 mg/kg/injection, schedule: Q01DX009 (ip), vehicle: saline with Tween-80): 100 % of control | T/C (endpoint: mean survival time, dose: 25.0 mg/kg/injection, schedule: Q01DX009 (ip), vehicle: saline with Tween-80): 104 % of control

O=C1NNC(=O)C2C3CCC(C3)C12 (configuration not stated)
T/C (endpoint: mean survival time, dose: 100.0 mg/kg/injection, schedule: Q04DX003 (ip), vehicle: saline sonified): 95 % of control | T/C (endpoint: mean survival time, dose: 200.0 mg/kg/injection, schedule: Q04DX003 (ip), vehicle: saline sonified): 89 % of control

C=CC[N+]12CC=C(CO)C1C(O)CC2 (configuration not stated)
T/C (endpoint: mean survival time, dose: 100.0 mg/kg/injection, schedule: Q04DX002 (ip), vehicle: saline): 101 % of control | T/C (endpoint: mean survival time, dose: 200.0 mg/kg/injection, schedule: Q04DX002 (ip), vehicle: saline): 104 % of control | T/C (endpoint: mean survival time, dose: 400.0 mg/kg/injection, schedule: Q04DX002 (ip), vehicle: saline): 97 % of control

C1=C\C[n+]2ccccc2-c2cccc[n+]2C/1
T/C (endpoint: mean survival time, dose: 7.5 mg/kg/injection, schedule: Q01DX001 (ip), vehicle: saline): 95 % of control | T/C (endpoint: mean survival time, dose: 7.5 mg/kg/injection, schedule: Q04DX003 (ip), vehicle: saline): 96 % of control | T/C (endpoint: mean survival time, dose: 15.0 mg/kg/injection, schedule: Q01DX001 (ip), vehicle: saline): 95 % of control | T/C (endpoint: mean survival time, dose: 15.0 mg/kg/injection, schedule: Q04DX003 (ip), vehicle: saline): 97 % of control | T/C (endpoint: mean survival time, dose: 30.0 mg/kg/injection, schedule: Q01DX001 (ip), vehicle: saline): 98 % of control

N#CC(C#N)=NNc1ccc(S(=O)(=O)O)cc1
T/C (endpoint: mean survival time, dose: 100.0 mg/kg/injection, schedule: Q01DX009 (ip), vehicle: saline): 93 % of control | T/C (endpoint: mean survival time, dose: 200.0 mg/kg/injection, schedule: Q01DX009 (ip), vehicle: saline): 95 % of control | T/C (endpoint: mean survival time, dose: 400.0 mg/kg/injection, schedule: Q01DX009 (ip), vehicle: saline): 95 % of control

COC(=O)C1CCC(C(=O)O)CC1 (configuration not stated)
T/C [4]: 92 % of control | T/C [1]: 101 % of control | T/C [5]: 94 % of control | T/C [2]: 97 % of control | T/C (endpoint: mean survival time, dose: 400.0 mg/kg/injection, schedule: Q01DX009 (ip), vehicle: saline with Tween-80): 89 % of control | T/C [3]: 95 % of control

Cc1cc(C(O)CNC(C)CCn2cnc3c2c(=O)n(C)c(=O)n3C)ccc1O (configuration not stated)
T/C (endpoint: mean survival time, dose: 12.5 mg/kg/injection, schedule: Q01DX005 (ip), vehicle: water): 93 % of control | T/C (endpoint: mean survival time, dose: 25.0 mg/kg/injection, schedule: Q01DX005 (ip), vehicle: water): 96 % of control | T/C (endpoint: mean survival time, dose: 50.0 mg/kg/injection, schedule: Q01DX005 (ip), vehicle: water): 96 % of control | T/C (endpoint: mean survival time, dose: 100.0 mg/kg/injection, schedule: Q01DX005 (ip), vehicle: water): 100 % of control | T/C (endpoint: mean survival time, dose: 200.0 mg/kg/injection, schedule: Q01DX005 (ip), vehicle: water): 93 % of control

Cn1c(=O)cc(O)c2ccccc21
T/C [1]: 101 % of control | T/C [2]: 97 % of control | T/C [3]: 97 % of control

O.O.[Cl][Pt+2][Cl].[NH-]CC1(C[NH-])CCCCC1
T/C (endpoint: median survival time, dose: 3.12 mg/kg/injection, schedule: Q04DX003 (ip), vehicle: saline): 121 % of control
